This test concerns the target T1, human LH-RH receptor (Homo sapiens, UniProt P30968).
T1 construct: cell membrane fraction or whole cells
T1 sequence (P30968 1-328): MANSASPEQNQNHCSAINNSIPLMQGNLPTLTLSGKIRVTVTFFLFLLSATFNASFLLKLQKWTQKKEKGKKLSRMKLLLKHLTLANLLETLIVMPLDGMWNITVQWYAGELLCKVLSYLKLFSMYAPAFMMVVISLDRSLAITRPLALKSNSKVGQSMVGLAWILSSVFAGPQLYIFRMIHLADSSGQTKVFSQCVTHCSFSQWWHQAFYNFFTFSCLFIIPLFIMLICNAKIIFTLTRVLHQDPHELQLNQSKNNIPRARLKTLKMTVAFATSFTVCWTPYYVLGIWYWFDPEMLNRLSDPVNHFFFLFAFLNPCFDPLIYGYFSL
The test is described as follows: [125I]-leuprorelin binding inhibition, CHO cell membrane fraction. The conditions noted are these: 2 μl of 2 mM compound in 60% DMSO added to 188 μl of 200 μg/ml membrane fraction with 10 μl of 3.6 nM [125I]-leuprorelin; 25° C., 60 minutes. How it is done: The human LH-RH receptor expression cells (10^9 cells) obtained in Example 2 were suspended in phosphate buffered saline containing 5 mM EDTA (PBS-EDTA), and centrifuged at 100×g for 5 minutes. To cell pellets, 10 ml of a cell homogenating buffer (10 mM NaHCO3, 5 mM EDTA, pH 7.5) was added, followed by homogenization with a Polytron homogenizer. After centrifugation at 400×g for 15 minutes, the supernatant was placed in an ultracentrifugal tube, and centrifuged at 100,000×g for 1 hour to obtain a cell membrane fraction precipitate. This precipitate was suspended in 2 ml of an assay buffer, and centrifuged at 100,000×g for 1 hour. The cell membrane fraction recovered as a precipitate was suspended in 20 ml of the assay buffer again. The suspension was dispensed and stored at -80° C. It was defrosted at every time of use. […]
Using the human LH-RH receptor expression CHO cell membrane fraction, reaction was conducted at 25° C. for 60 minutes. […] After the filtration, the radioactivity of [^125 I]-leuprorelin left on the filter was measured with a gamma-ray counter.
The binding inhibition rate of each sample to be tested was determined according to the following equation: [formula] wherein SB represents the radioactivity when the compound is added, TB represents the maximum binding radioactivity, and NSB represents the non-specific binding radioactivity.

Structures are written as SMILES.

The molecule `CCOC(=O)c1cn(Cc2ccccc2OC)c2sc(-c3ccc(OC)cc3)c(C)c2c1=O` [Reference Example 9] displayed an inhibition at 2000 µM (stock) of 67%.
